Reference: patent US11459323B2, “Monocyclic β-lactam compound for treating bacterial infection” (MEDSHINE DISCOVERY INC., priority 2018, dated 2022)
Values after ≈ are worked out from the molar mass of the structure shown.

Experiments:
E. coli ATCC 25922 = assay: MIC by micro-liquid dilution method (CLSI); type: cell-based; conditions: Escherichia coli; E. coli ATCC25922; read-out: MIC
[1] = tested on: Acinetobacter baumannii ATCC-BAA-1800; assay: MIC on Acinetobacter baumannii strains; type: cell-based; conditions: ATCCBAA1800, ATCC-BAA-1800, read-out: MIC
Outline: (§1)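 A panel of twelve A. baumannii strains served for susceptibility testing. The method was micro-liquid dilution as required by CLSI, and values are MICs.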

[2] = tested on: Acinetobacter baumannii ATCC-BAA-1605; assay: MIC on Acinetobacter baumannii strains; type: cell-based; conditions: ATCCBAA1605
Outline: as §1

[3] = tested on: Acinetobacter baumannii ATCC-BAA-1799; assay: MIC on Acinetobacter baumannii strains; type: cell-based; conditions: ATCCBAA1799
Outline: as §1

[4] = tested on: Acinetobacter baumannii ATCC-BAA-1791; assay: MIC on Acinetobacter baumannii strains; type: cell-based; conditions: ATCCBAA1791
Outline: as §1

[5] = tested on: Acinetobacter baumannii ATCC 19606; assay: MIC on Acinetobacter baumannii strains; type: cell-based; conditions: ATCC19606
Outline: as §1

[6] = tested on: Acinetobacter baumannii ATCC-BAA-1793; assay: MIC on Acinetobacter baumannii strains; type: cell-based; conditions: ATCCBAA1793, ATCC-BAA-1793, read-out: MIC
Outline: as §1

[7] = tested on: Acinetobacter baumannii ATCC-BAA-1790; assay: MIC on Acinetobacter baumannii strains; type: cell-based; conditions: ATCCBAA1790, ATCC-BAA-1790, read-out: MIC
Outline: as §1

[8] = tested on: Acinetobacter baumannii ATCC-BAA-1795; assay: MIC on Acinetobacter baumannii strains; type: cell-based; conditions: ATCCBAA1795
Outline: as §1

[9] = tested on: Acinetobacter baumannii ATCC-BAA-1794; assay: MIC on Acinetobacter baumannii strains; type: cell-based; conditions: ATCCBAA1794, ATCC-BAA-1794, read-out: MIC
Outline: as §1

[10] = tested on: Acinetobacter baumannii ATCC 17978; assay: MIC on Acinetobacter baumannii strains; type: cell-based; conditions: ATCC17978
Outline: as §1

[11] = tested on: Acinetobacter baumannii ATCC-BAA-1792; assay: MIC on Acinetobacter baumannii strains; type: cell-based; conditions: ATCCBAA1792, ATCC-BAA-1792, read-out: MIC
Outline: as §1

[12] = tested on: Acinetobacter baumannii ATCC-BAA-1789; assay: MIC on Acinetobacter baumannii strains; type: cell-based; conditions: ATCCBAA1789
Outline: as §1

[13] = tested on: Pseudomonas aeruginosa PA14; assay: Lungs of immunosuppressed mice infected with Pseudomonas aeruginosa (2), lung bacterial load; type: in vivo; conditions: 24 hours after infection, total dosage 100 mg/kg, day, ip at 2 h, 4 h, 6 h, 8 h
Method: Pseudomonas aeruginosa PA14. 60 mice were intraperitoneally injected with 150 mg/kg cyclophosphamide on day 1 and day 4 to give immunosuppressed mice. […] [table] The mice were injected with 50 μL of bacterial solution (2×10^3 CFU) through the airway. 2 hours after the infection, 4 mice in the model group was sacrificed by removing cervical vertebra. Two hours after infection, the drugs were administered by groups, and the mice were administered intraperitoneally once at 2 hours, 4 hours, 6 hours, and 8 hours, a total of 4 times. Mice of each group were sacrificed by removing cervical vertebra 24 hours after infection, lung and kidney tissues were taken aseptically and put into a sterilized tissue homogenate tube, weighed, and an appropriate amount of normal saline (NS) was added, the mixture was homogenized by a homogenizer for 1 min, the lung tissues of the model group were diluted 10^4, 10^5, 10^6 times, the lung tissues of each administration group were diluted 10, 100 times, the kidney tissues of the model group were diluted 10^2, 10^3, 10^4 times, and the lung tissues of each administration group were diluted 10 times, the obtained mixtures were coated on TSA plates using spiral coater, then incubated at 37° C. overnight, and the CFU was counted with a colony counter. Graphpad Prism mapping software was used to make scatter plots of lung tissue CFU. SPSS19.0 software was used to count CFU and average body weight, and analysis of variance was used to analyze differences between groups.

[14] = tested on: Acinetobacter baumannii C241; assay: MIC on clinically isolated bacteria; type: cell-based; conditions: Acinetobacter baumannii C241; read-out: Minimum Inhibitory Concentration (MIC)
Outline: (§2)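 Values were obtained by CLSI-conformant microdilution against clinically isolated Gram-negative strains.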

[15] = tested on: Acinetobacter baumannii C279; assay: MIC on clinically isolated bacteria; type: cell-based; conditions: Acinetobacter baumannii C279; read-out: Minimum Inhibitory Concentration (MIC)
Outline: as §2

[16] = tested on: Acinetobacter baumannii C330; assay: MIC on clinically isolated bacteria; type: cell-based; conditions: Acinetobacter baumannii C330; read-out: Minimum Inhibitory Concentration (MIC)
Outline: as §2

[17] = tested on: Acinetobacter baumannii C181; assay: MIC on clinically isolated bacteria; type: cell-based; conditions: Acinetobacter baumannii C181; read-out: Minimum Inhibitory Concentration (MIC)
Outline: as §2

[18] = tested on: Acinetobacter baumannii C281; assay: MIC on clinically isolated bacteria; type: cell-based; conditions: Acinetobacter baumannii C281; read-out: Minimum Inhibitory Concentration (MIC)
Outline: as §2

[19] = tested on: Pseudomonas aeruginosa W6; assay: MIC on clinically isolated bacteria; type: cell-based; conditions: read-out: MIC
Outline: as §2

[20] = tested on: Pseudomonas aeruginosa M1; assay: MIC on clinically isolated bacteria; type: cell-based; conditions: read-out: MIC
Outline: as §2

[21] = tested on: Pseudomonas aeruginosa C762; assay: MIC on clinically isolated bacteria; type: cell-based
Outline: as §2

[22] = tested on: Pseudomonas aeruginosa W23; assay: MIC on clinically isolated bacteria; type: cell-based; conditions: read-out: MIC
Outline: as §2

[23] = tested on: Pseudomonas aeruginosa W35; assay: MIC on clinically isolated bacteria; type: cell-based; conditions: read-out: MIC
Outline: as §2

[24] = tested on: Acinetobacter baumannii C283; assay: MIC on clinically isolated bacteria; type: cell-based; conditions: Acinetobacter baumannii C283; read-out: Minimum Inhibitory Concentration (MIC)
Outline: as §2

Work on `C[C@H]1[C@H](NC(=O)/C(=N\OC(C)(C)C(=O)O)c2csc(N)n2)C(=O)N1S(=O)(=O)O` [Aztreonam, reference compound] yielded an MIC (E. coli ATCC 25922) of 0.25 µg/mL (≈ 0.574 µM), an MIC [1] of 32 µg/mL (≈ 73.5 µM) and an MIC [2] of 128 µg/mL (≈ 294 µM). The MIC [3] was 128 µg/mL (≈ 294 µM), the MIC [4] was 32 µg/mL (≈ 73.5 µM) and the MIC [5] was 32 µg/mL (≈ 73.5 µM). The MIC [6] was 64 µg/mL (≈ 147 µM), the MIC [7] was 32 µg/mL (≈ 73.5 µM) and the MIC [8] was 32 µg/mL (≈ 73.5 µM). The MIC [9] was 32 µg/mL (≈ 73.5 µM), the MIC [10] was 32 µg/mL (≈ 73.5 µM) and the MIC [11] was 64 µg/mL (≈ 147 µM). The MIC [12] was 64 µg/mL (≈ 147 µM), the LOG10-of bacterial load [13] was 6.91 ± 1.63 and the MIC [14] was 128 µg/mL (≈ 294 µM). For the same compound, the MIC [15] was 64 µg/mL (≈ 147 µM), the MIC [16] was 64 µg/mL (≈ 147 µM) and the MIC [17] was 64 µg/mL (≈ 147 µM). For the same compound, the MIC [18] was 64 µg/mL (≈ 147 µM), the MIC [19] was 32 µg/mL (≈ 73.5 µM) and the MIC [20] was 8 µg/mL (≈ 18.4 µM). It also gave an MIC [21] of 128 µg/mL (≈ 294 µM), an MIC [22] of 16 µg/mL (≈ 36.7 µM) and an MIC [23] of 2 µg/mL (≈ 4.59 µM). It also gave an MIC [24] of 64 µg/mL (≈ 147 µM).
